Test results published in ChEMBL document CHEMBL6134827, “The discovery of novel antimicrobial peptides against drug-resistant bacteria based on fragments fusion strategy” (Eur J Med Chem, 2025).
Active and inactive are the calls of the source. The rule behind the calls is not given here. Positions of bridges follow the written chain, without caps; N, C: chain ends. Non-standard residues stand in square brackets, D forms with d. Residues, ends and D or L forms follow the SMILES beside them. *: point of attachment. X1 = CC[C@H](C)CCCCC(=O)*; Dab = NCC[C@H](N)C(=O)O

Columns and labels:
[1] = Nephrotoxicity in female C57BL/6 mouse assessed as presence of flocculents in lumen at 20 mg/kg, ip administered daily and measured for 5 days by H and E staining based analysis; format: toxicity, organism-based; conditions: in vivo, 120 h, time 5 day
[2] = Toxicity in female C57BL/6 mouse assessed as histopathological change in kidney at 20 mg/kg, ip administered daily and measured for 5 days by H and E staining based analysis; format: organism-based; conditions: in vivo, 120 h, time 5 day
[3] = Nephrotoxicity in female C57BL/6 mouse assessed as increase in BUN level at 15 mg/kg, ip administered daily and measured for 5 days; format: toxicity, organism-based; conditions: in vivo, 120 h, time 5 day
[4] = Nephrotoxicity in female C57BL/6 mouse assessed as tubular dilation at 20 mg/kg, ip administered daily and measured for 5 days by H and E staining based analysis; format: toxicity, organism-based; conditions: in vivo, 120 h, time 5 day
Staphylococcus aureus [5] = test: Antibacterial activity against multidrug resistant Staphylococcus aureus assessed as reduction in bacterial growth at 32 microg/mL measured after 1.5 hrs by bactericidal kinetic assay; format: functional, organism-based; conditions: dose 32.0 µg/ml
BEAS-2B = test: Cytotoxicity against human BEAS-2B cells assessed as reduction in cell viability at 2 to 64 microg/mL measured after 24 hrs by CCK-8 assay; format: toxicity, cell-based; conditions: dose 2-64 µg/ml
Acinetobacter baumannii = test: Antimicrobial activity against multidrug resistant Acinetobacter baumannii assessed as inhibition of visible microbial growth incubated for 18 hrs by broth microdilution method; format: functional
[6] = Stability in 25% human plasma assessed as compound remaining measured after 24 hrs by RP-HPLC analysis; format: ADME, cell-free; conditions: 25% plasma, read-out: Stability
Staphylococcus aureus [7] = test: Antimicrobial activity against multidrug resistant Staphylococcus aureus assessed as inhibition of visible microbial growth incubated for 18 hrs by broth microdilution method; format: functional
[8] = Cytotoxicity against human BEAS-2B cells assessed as inhibition of cell growth measured after 24 hrs by CCK-8 assay; format: toxicity, cell-based
Cell membrane [9] = test: Induction of outer cell membrane permeabilization in multidrug resistant Pseudomonas aeruginosa assessed as increase in fluorescence intensity measured for 12 mins by NPN uptake assay; format: subcellular; conditions: dose 4-32 µg/ml
Staphylococcus aureus [10] = test: Drug resistance, ratio of MIC for multidrug resistant Staphylococcus aureus after 4 passages to MIC for multidrug resistant Staphylococcus aureus after first exposure; format: functional
L02 = test: Cytotoxicity against human LO2 cells assessed as reduction in cell viability at 2 to 64 microg/mL measured after 24 hrs by CCK-8 assay; format: toxicity, cell-based; conditions: l02, 24 h, dose 2-64 µg/ml
Cell membrane [11] = test: Induction of outer cell membrane permeabilization in multidrug resistant Pseudomonas aeruginosa assessed as increase in fluorescence intensity at >16 microg/ml measured for 12 mins by NPN uptake assay; format: subcellular; conditions: dose > 16.0 µg/ml
Escherichia coli [12] = test: Antimicrobial activity against multidrug resistant Escherichia coli assessed as inhibition of visible microbial growth incubated for 18 hrs by broth microdilution method; format: functional
Staphylococcus aureus [13] = test: Drug resistance, ratio of MIC for Staphylococcus aureus ATCC 29213 after 4 passages to MIC for Staphylococcus aureus ATCC 29213 after first exposure; format: functional
Pseudomonas aeruginosa [14] = test: Antibacterial activity against multidrug resistant Pseudomonas aeruginosa assessed as reduction in bacterial growth at 32 microg/mL measured within 30 min by bactericidal kinetic assay relative to control; format: functional; set-up: scale not given: the % may be the effect or the level left; conditions: dose 32 µg/ml, 0.5 h
Pseudomonas aeruginosa [15] = test: Drug resistance, ratio of MIC for multidrug resistant Pseudomonas aeruginosa after 14 passages to MIC for multidrug resistant Pseudomonas aeruginosa after first exposure; format: functional
Escherichia coli [16] = test: Antimicrobial activity against Escherichia coli ATCC 25922 assessed as inhibition of visible microbial growth incubated for 18 hrs by broth microdilution method; format: functional
Cell membrane [17] = test: Induction of cytoplasmic membrane depolarization in multidrug resistant Pseudomonas aeruginosa assessed as increase in fluorescence intensity measured for 12 min by DISC3-5 dye based fluorescence analysis; format: subcellular; conditions: dose 4-32 µg/ml
[18] = Hemolytic activity in human red blood cell assessed as hemolysis at 128 microg/ml measured after 1 hrs by microplate reader assay relative to control; format: toxicity, cell-based, Erythrocyte; conditions: red blood cells, at 128 µg/mL, read-out: Activity
Staphylococcus aureus [19] = test: Antimicrobial activity against Staphylococcus aureus ATCC 29213 assessed as inhibition of visible microbial growth incubated for 18 hrs by broth microdilution method; format: functional
Pseudomonas aeruginosa [20] = test: Antimicrobial activity against multidrug resistant Pseudomonas aeruginosa assessed as inhibition of visible microbial growth incubated for 18 hrs by broth microdilution method; format: functional
Bacillus subtilis = test: Antibacterial activity against Bacillus subtilis; format: functional
[21] = Cytotoxicity against HEK293T cells assessed as survival rate at 64 microg/ml measured after 24 hrs by CCK-8 assay relative to control; format: toxicity, cell-based, HEK-293T; conditions: human, at 64 µg/mL, read-out: Survival
[22] = Cytotoxicity against human BEAS-2B cells assessed as survival rate at 64 microg/ml measured after 24 hrs by CCK-8 assay relative to control; format: toxicity, cell-based; conditions: at 64 µg/mL, read-out: Survival
[23] = Cytotoxicity against human LO2 cells assessed as survival rate at 64 microg/ml measured after 24 hrs by CCK-8 assay relative to control; format: toxicity, cell-based, L02; conditions: at 64 µg/mL, read-out: Survival
Pseudomonas aeruginosa [24] = test: Drug resistance, ratio of MIC for multidrug resistant Pseudomonas aeruginosa after 5 passages to MIC for multidrug resistant Pseudomonas aeruginosa after first exposure; format: functional
Staphylococcus aureus [25] = test: Drug resistance, ratio of MIC for Staphylococcus aureus ATCC 29213 after 14 passages to MIC for Staphylococcus aureus ATCC 29213 after first exposure; format: functional
Staphylococcus aureus [26] = test: Drug resistance, ratio of MIC for multidrug resistant Staphylococcus aureus after 10 passages to MIC for multidrug resistant Staphylococcus aureus after first exposure; format: functional

Row | Molecule | MIC (Acinetobacter baumannii) | MIC (Staphylococcus aureus [7]) | CC50 at 24 h [8] | MIC (Escherichia coli [12]) | MIC (Escherichia coli [16]) | hemolysis at 1 h, 128 µg/mL [18] | MIC (Staphylococcus aureus [19]) | MIC (Pseudomonas aeruginosa [20]) | also measured
1 | CC(C)CCCCC(=O)N[C@@H](CCN)C(=O)N[C@H](C(=O)N[C@@H](CCN)C(=O)N[C@H]1CCNC(=O)[C@H]([C@@H](C)O)NC(=O)[C@H](CCN)NC(=O)[C@H](CCN)NC(=O)[C@H](CC(C)C)NC(=O)[C@@H](Cc2ccccc2)NC(=O)[C@H](CCN)NC1=O)[C@@H](C)O.CC[C@H](C)CCCCC(=O)N[C@@H](CCN)C(=O)N[C@H](C(=O)N[C@@H](CCN)C(=O)N[C@H]1CCNC(=O)[C@H]([C@@H](C)O)NC(=O)[C@H](CCN)NC(=O)[C@H](CCN)NC(=O)[C@H](CC(C)C)NC(=O)[C@@H](Cc2ccccc2)NC(=O)[C@H](CCN)NC1=O)[C@@H](C)O (X1-[Dab]T[Dab][Dab][Dab][dF]L[Dab][Dab]T; lactam 4-C) [listing 1 of 2 here] | – | – | – | – | – | – | – | – | Activity [1]: Toxic; Activity [2]: Non-toxic; Activity [3]: Toxic; Activity [4]: Toxic
2 | H-GIGKFLKKAKKFGKAFVKILKK-OH | 1.6 µM | 12.9 µM | 45.9 µg/mL | 3.2 µM | 3.2 µM | < 10% | 12.9 µM | 3.2 µM | Activity (Staphylococcus aureus [5]): Not active; Bacterial Regrowth Observed; Activity (BEAS-2B): Toxic; remaining at 24 h [6]: 34%; Activity (Cell membrane [9]): Dose-dependent-effect; Ratio (Staphylococcus aureus [10]): 8; Activity (L02): Toxic; Activity (Cell membrane [11]): Active; Ratio (Staphylococcus aureus [13]): 8; Activity (Pseudomonas aeruginosa [14]): 100%; Ratio (Pseudomonas aeruginosa [15]): 4; Activity (Cell membrane [17]): Dose-dependent-effect
3 | H-GLRKRLRKFFNKIKF-OH | 16.4 µM | 65.7 µM | – | 4.1 µM | 8.2 µM | – | 32.8 µM | 16.4 µM | MIC (Bacillus subtilis): > 3 µM
4 | CC(C)CCCCC(=O)N[C@@H](CCN)C(=O)N[C@H](C(=O)N[C@@H](CCN)C(=O)N[C@H]1CCNC(=O)[C@H]([C@@H](C)O)NC(=O)[C@H](CCN)NC(=O)[C@H](CCN)NC(=O)[C@H](CC(C)C)NC(=O)[C@@H](Cc2ccccc2)NC(=O)[C@H](CCN)NC1=O)[C@@H](C)O.CC[C@H](C)CCCCC(=O)N[C@@H](CCN)C(=O)N[C@H](C(=O)N[C@@H](CCN)C(=O)N[C@H]1CCNC(=O)[C@H]([C@@H](C)O)NC(=O)[C@H](CCN)NC(=O)[C@H](CCN)NC(=O)[C@H](CC(C)C)NC(=O)[C@@H](Cc2ccccc2)NC(=O)[C@H](CCN)NC1=O)[C@@H](C)O (X1-[Dab]T[Dab][Dab][Dab][dF]L[Dab][Dab]T; lactam 4-C) [listing 2 of 2 here] | 0.8 µM | – | – | 0.8 µM | 0.4 µM | – | – | 2 µg/mL | Ratio (Pseudomonas aeruginosa [15]): 4
5 | CC(C)C[C@H](NC(=O)CN)C(=O)N[C@@H](CCN)C(=O)N[C@@H](CCN)C(=O)N[C@@H](Cc1c[nH]c2ccccc12)C(=O)N[C@@H](CC(C)C)C(=O)N[C@@H](CCN)C(=O)N[C@@H](CCN)C(=O)N[C@@H](Cc1ccccc1)C(=O)N[C@@H](CCN)C(=O)N[C@@H](CCN)C(=O)N[C@@H](Cc1ccccc1)C(=O)N[C@@H](Cc1c[nH]c2ccccc12)C(=O)O (H-GL[Dab][Dab]WL[Dab][Dab]F[Dab][Dab]FW-OH) | 5.1 µM | 5.1 µM | > 64 µg/mL | 10.2 µM | 5.1 µM | < 10% | 5.1 µM | 10.2 µM | viability at 24 h, 64 µg/mL [21]: > 80%; viability at 24 h, 64 µg/mL [22]: > 80%; viability at 24 h, 64 µg/mL [23]: > 80%
6 | H-GLRKWLRKFKKFW-OH | 4.5 µM | 17.8 µM | 38.4 µg/mL | 4.5 µM | 8.9 µM | < 10% | 17.8 µM | 4.5 µM | Activity (BEAS-2B): Toxic; Activity (L02): Toxic
7 | C[C@H]1COc2c(N3CCN(C)CC3)c(F)cc3c(=O)c(C(=O)O)cn1c23 [LEVOFLOXACIN ANHYDROUS] | – | – | – | – | – | – | – | – | Ratio (Pseudomonas aeruginosa [24]): 16; Ratio (Staphylococcus aureus [10]): 4; Ratio (Staphylococcus aureus [25]): 512
8 | CN[C@H](CC(C)C)C(=O)N[C@H]1C(=O)N[C@@H](CC(N)=O)C(=O)N[C@H]2C(=O)N[C@H]3C(=O)N[C@H](C(=O)N[C@H](C(=O)O)c4cc(O)cc(O)c4-c4cc3ccc4O)[C@H](O)c3ccc(c(Cl)c3)Oc3cc2cc(c3O[C@@H]2O[C@H](CO)[C@@H](O)[C@H](O)[C@H]2O[C@H]2C[C@](C)(N)[C@H](O)[C@H](C)O2)Oc2ccc(cc2Cl)[C@H]1O [VANCOMYCIN] | – | 0.7 µM | – | – | – | – | 0.7 µM | – | Ratio (Staphylococcus aureus [13]): 4; Ratio (Staphylococcus aureus [26]): 2
